ChEMBL document CHEMBL1201862, “PubChem BioAssay data set” (2004)
Calls of active or inactive are those of the source.

Experiments:
Nonstructural protein 1 = Nonstructural protein 1 (Influenza A virus, UniProt Q194T2); type: functional, Influenza A virus (A/California/07/2009(H1N1))
[1] = viability loss in HeLa cells – cytotoxicity control for MgcRacGAP inhibitor project, dose response (AID 624300); type: functional
[2] = inhibition of ARNT PAS-B/TACC3 complex formation – biochemical, AlphaScreen, cherry-picked samples, confirmation (AID 651703); type: functional, Homo sapiens;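 also: His-tagged ARNT PAS-B domain paired with GST-TACC3 E629A dimer coactivator fragment; potency of inhibitors that break up the complex and lower AlphaScreen signal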
[3] = viability of PTEN-deleted HCT116 cells – cell-based, HCT116 PTEN knockout, dose response (AID 1047); type: functional;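 also: HCT116 colon tumor cells with PTEN knocked out; cells exposed to compound for 60 hours before readout; potency for loss of cell viability measured by luminescence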
[4] = toxicity toward HepG2 hepatoma cells – cell-based, dry powder samples, cytotoxicity control, dose response (AID 720568); type: functional
[5] = viability of HCT116 lacking mutant beta-catenin – cell-based, human colon tumor, dose response (AID 1045); type: functional;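 also: HCT116 colon tumor cells with beta catenin knocked out; cells exposed to compound for 60 hours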
[6] = target: T1, Polyadenylate-binding protein 1 (Homo sapiens, UniProt P11940); experiment: MLLE binding blockers, Cy5 peptide tracer – biochemical, fluorescence polarization, Cy5-PAM2 peptide, secondary, miRNA deadenylation inhibitor project, dose response (AID 602260); type: functional; conditions: read-out: IC50_Mean
Troponin, cardiac muscle = Troponin, cardiac muscle (Homo sapiens, UniProt P19429+P45379+P63316); experiment: compounds desensitizing RTF to calcium – biochemical, fluorescence, cardiac regulated thin filaments, triplicate IC50, dose response (AID 504742); type: protein-complex assay
[7] = target: T2, Zinc finger protein mex-5 (Caenorhabditis elegans, UniProt Q9XUB2); experiment: potency of MEX-5 RNA-binding blockers – biochemical, C. elegans, fluorescence polarization, dose response (AID 1960)
T2 sequence (Q9XUB2 whole entry): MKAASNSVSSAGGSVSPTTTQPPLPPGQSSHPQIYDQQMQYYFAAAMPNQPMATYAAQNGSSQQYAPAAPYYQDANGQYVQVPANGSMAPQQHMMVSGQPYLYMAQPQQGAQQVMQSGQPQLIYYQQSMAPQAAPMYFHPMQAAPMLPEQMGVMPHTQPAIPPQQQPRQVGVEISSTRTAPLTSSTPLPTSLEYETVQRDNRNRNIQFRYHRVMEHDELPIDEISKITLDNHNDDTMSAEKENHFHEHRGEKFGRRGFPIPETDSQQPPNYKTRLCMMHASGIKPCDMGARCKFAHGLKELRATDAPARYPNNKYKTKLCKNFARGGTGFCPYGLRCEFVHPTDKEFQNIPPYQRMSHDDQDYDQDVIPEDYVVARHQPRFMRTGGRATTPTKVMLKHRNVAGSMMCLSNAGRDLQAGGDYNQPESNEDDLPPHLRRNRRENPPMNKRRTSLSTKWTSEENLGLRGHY

[8] = target: T1, Polyadenylate-binding protein 1; experiment: MLLE domain peptide-binding blockers, IC50 – biochemical, fluorescence polarization, FITC-PAM2 peptide, dose response (AID 602259); type: functional; conditions: read-out: IC50_Mean
Estrogen receptor = target: T3, Estrogen receptor (Homo sapiens, UniProt P03372);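 also: potency for inhibiting coactivator peptide recruitment to the receptor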
T3 sequence (P03372 whole entry): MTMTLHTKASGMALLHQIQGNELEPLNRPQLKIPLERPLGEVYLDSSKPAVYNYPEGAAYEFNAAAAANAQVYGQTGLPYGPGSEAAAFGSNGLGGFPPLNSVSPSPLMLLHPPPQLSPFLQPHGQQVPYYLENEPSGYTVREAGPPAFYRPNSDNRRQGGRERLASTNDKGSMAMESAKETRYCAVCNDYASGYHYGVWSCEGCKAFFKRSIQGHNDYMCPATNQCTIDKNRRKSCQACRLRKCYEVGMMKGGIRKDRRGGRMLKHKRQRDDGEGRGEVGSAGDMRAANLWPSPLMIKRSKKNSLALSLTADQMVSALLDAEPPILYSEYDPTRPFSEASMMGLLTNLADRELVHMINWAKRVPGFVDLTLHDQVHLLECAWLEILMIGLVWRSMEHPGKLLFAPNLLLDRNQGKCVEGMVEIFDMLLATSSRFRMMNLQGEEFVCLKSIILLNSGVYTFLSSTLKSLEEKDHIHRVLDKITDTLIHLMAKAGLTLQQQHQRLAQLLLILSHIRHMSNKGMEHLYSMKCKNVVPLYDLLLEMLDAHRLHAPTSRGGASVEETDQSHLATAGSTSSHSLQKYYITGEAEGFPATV

Caspase-6 = target: T4, Caspase-6 (Homo sapiens, UniProt P55212); experiment: inhibition of CASP6 peptide cleavage – biochemical, VEID-R110 fluorescence, cherry-pick, dose response (AID 720632)
T4 sequence (P55212 whole entry): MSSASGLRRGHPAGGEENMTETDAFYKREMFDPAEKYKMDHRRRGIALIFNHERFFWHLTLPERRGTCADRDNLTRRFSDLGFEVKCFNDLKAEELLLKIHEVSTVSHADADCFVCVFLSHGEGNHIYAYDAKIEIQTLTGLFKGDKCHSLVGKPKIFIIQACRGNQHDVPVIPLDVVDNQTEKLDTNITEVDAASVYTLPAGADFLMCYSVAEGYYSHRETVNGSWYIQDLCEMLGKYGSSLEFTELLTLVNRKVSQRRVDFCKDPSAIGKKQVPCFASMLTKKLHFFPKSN

Caspase-9 = Caspase-9 (Homo sapiens, UniProt P55211); experiment: inhibitors of purified CASP9 protease – biochemical, fluorescence, plate reader, cherry-picked samples, selectivity assay for caspase-6 inhibitor project, dose response (AID 743293)
[9] = target: Tyrosyl-DNA phosphodiesterase 2 (Homo sapiens, UniProt O95551); experiment: potency against TDP2 phosphodiesterase activity – biochemical, epi absorbance, IC50, dose response (AID 743297)
Caspase-8 = Caspase-8 (Homo sapiens, UniProt Q14790); experiment: inhibitors of purified CASP8 protease – biochemical, Z-IETD-R110 fluorescence, cherry-picked samples, selectivity assay for caspase-6 inhibitor project, dose response (AID 743294)
[10] = target: T5, Mannose-6-phosphate isomerase (Homo sapiens, UniProt P34949); experiment: MPI inhibition at elevated mannose 6-phosphate – biochemical, fluorescence intensity, high mannose 6-phosphate, primary screen (AID 1220)
T5 sequence (P34949 whole entry): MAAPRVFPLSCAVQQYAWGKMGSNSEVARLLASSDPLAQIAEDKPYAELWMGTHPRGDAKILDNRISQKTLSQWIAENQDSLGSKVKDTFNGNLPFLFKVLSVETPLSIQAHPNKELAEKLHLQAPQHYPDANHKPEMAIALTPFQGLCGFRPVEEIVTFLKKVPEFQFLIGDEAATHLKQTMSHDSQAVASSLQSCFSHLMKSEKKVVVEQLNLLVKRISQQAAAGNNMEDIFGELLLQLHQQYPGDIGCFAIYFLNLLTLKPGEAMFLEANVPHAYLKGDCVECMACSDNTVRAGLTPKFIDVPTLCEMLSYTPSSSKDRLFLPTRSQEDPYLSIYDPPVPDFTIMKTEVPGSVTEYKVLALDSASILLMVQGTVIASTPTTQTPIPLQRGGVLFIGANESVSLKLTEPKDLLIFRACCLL

[11] = target: Serine/threonine-protein phosphatase (Homo sapiens, UniProt Q9BPW0); experiment: inhibition of protein phosphatase 5 activity – biochemical, fluorescence, dose response (AID 2395)
[12] = target: Proto-oncogene tyrosine-protein kinase receptor Ret (Homo sapiens, UniProt P07949); type: functional;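 also: measured within a kinome-wide profiling panel, RET as the panel member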
Proto-oncogene tyrosine-protein kinase receptor Ret, sequence (P07949 whole entry): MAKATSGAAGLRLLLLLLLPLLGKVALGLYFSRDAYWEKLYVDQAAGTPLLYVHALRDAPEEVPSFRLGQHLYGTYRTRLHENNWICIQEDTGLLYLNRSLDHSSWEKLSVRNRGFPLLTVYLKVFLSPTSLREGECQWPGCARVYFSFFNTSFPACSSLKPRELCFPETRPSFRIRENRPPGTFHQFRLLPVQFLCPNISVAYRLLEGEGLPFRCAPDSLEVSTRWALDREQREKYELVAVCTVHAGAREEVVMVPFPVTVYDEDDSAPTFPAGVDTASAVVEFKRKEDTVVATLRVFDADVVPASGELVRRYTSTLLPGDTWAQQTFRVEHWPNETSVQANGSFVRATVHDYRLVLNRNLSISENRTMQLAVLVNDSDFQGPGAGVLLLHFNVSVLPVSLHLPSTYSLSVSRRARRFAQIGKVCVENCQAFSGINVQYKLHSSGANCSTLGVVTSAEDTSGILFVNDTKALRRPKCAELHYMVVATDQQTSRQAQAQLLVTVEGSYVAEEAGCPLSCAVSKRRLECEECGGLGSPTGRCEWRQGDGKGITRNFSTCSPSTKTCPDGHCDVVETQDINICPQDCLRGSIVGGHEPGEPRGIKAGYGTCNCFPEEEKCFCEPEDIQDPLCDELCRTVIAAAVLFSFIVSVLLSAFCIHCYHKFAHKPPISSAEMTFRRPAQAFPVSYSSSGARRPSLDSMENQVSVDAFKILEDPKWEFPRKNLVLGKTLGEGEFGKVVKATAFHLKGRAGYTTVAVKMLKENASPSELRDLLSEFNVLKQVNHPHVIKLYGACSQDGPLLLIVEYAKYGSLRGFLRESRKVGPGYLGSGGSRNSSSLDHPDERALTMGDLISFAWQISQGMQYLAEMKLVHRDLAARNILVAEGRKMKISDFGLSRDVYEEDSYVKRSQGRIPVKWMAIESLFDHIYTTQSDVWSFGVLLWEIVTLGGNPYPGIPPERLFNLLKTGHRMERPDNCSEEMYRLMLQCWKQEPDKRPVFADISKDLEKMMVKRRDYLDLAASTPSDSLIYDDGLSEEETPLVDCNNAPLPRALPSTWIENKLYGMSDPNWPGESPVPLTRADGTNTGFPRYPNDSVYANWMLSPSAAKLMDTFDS

T1 sequence (P11940 whole entry): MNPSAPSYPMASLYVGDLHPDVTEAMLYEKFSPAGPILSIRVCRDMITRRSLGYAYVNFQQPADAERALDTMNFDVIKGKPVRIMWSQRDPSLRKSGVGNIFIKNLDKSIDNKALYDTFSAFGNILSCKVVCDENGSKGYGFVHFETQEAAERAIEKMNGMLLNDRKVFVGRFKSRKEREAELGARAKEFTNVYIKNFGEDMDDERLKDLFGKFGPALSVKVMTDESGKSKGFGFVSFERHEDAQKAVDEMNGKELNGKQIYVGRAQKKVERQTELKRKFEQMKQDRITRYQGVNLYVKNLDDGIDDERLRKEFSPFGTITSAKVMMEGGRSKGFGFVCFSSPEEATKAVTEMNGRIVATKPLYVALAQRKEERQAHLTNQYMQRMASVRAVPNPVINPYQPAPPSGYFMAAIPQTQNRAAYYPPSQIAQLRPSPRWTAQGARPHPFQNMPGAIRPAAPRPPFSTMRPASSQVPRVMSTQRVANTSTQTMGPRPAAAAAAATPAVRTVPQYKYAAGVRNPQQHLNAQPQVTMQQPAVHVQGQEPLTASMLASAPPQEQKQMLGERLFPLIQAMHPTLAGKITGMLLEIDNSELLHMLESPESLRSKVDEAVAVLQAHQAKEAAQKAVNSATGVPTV
Caspase-9, sequence (P55211 1-315 limits assumed): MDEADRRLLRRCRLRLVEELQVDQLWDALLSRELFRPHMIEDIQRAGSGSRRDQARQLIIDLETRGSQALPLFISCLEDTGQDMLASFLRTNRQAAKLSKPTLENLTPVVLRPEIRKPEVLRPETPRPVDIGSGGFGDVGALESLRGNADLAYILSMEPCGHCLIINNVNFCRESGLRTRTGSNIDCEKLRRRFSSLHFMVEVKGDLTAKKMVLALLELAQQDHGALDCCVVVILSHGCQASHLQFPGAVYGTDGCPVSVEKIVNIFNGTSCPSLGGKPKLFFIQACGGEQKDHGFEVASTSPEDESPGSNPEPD
Caspase-9, sequence (P55211 331-416 limits assumed): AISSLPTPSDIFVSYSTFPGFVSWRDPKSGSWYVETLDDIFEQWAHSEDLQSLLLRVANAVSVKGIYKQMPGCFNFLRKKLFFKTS
Caspase-8, sequence (Q14790 217-374 limits assumed): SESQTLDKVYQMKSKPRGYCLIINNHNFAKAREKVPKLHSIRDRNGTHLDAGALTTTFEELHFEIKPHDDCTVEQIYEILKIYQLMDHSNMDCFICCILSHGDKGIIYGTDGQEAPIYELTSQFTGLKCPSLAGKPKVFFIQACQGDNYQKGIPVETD
Caspase-8, sequence (Q14790 385-479 limits assumed): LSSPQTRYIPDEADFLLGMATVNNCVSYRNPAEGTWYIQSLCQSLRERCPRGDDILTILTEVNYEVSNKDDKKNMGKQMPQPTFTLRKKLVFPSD
Nonstructural protein 1, sequence (Q194T2 whole entry): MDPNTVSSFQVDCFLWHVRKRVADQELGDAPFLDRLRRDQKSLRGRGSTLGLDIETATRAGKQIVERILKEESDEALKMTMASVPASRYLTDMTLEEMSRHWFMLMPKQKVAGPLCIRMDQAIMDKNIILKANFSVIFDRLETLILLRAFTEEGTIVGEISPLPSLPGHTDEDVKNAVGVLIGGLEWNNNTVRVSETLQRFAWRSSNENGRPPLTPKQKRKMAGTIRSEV
Serine/threonine-protein phosphatase, sequence (Q9BPW0 whole entry): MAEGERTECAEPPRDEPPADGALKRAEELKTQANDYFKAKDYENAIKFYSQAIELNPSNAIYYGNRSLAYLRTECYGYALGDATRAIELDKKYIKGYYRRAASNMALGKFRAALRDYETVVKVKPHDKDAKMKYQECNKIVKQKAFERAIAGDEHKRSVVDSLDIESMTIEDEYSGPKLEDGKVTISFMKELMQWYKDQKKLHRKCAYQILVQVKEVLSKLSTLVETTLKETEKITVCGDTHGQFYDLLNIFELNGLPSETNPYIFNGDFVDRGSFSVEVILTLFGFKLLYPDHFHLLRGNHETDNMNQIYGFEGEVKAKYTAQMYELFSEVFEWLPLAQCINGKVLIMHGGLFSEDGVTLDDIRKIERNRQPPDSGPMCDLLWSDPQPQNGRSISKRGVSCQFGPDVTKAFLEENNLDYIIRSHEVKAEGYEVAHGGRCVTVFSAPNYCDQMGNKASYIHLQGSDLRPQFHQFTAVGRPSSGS
Tyrosyl-DNA phosphodiesterase 2, sequence (O95551 whole entry): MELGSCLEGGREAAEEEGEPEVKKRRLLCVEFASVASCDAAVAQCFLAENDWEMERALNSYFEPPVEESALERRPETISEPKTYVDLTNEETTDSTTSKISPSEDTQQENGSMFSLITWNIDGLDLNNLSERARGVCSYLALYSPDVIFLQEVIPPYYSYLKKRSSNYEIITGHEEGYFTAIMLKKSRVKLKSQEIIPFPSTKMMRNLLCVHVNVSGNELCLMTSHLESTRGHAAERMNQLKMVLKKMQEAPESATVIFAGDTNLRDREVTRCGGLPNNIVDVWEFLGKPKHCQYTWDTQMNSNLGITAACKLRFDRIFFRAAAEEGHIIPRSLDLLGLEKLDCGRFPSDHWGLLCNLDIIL

In the case of CCN(CC)CCOc1ccc2c(c1)C(=NNC(=O)c1ccccn1)c1cc(OCCN(CC)CC)ccc1-2, the IC50 (Nonstructural protein 1) is reported as 13.8 µM (active), the CC50 [1] is reported as 31.7 µM (active) and the AC50 [2] is reported as 109 µM (active). The EC50 [3] was 3.25 µM (active), the AC50 [4] was 6.14 µM (active) and the EC50 [5] was 2.17 µM (active).
With O=C(O)c1ccc2c(c1)[C@@H]1C=CC[C@@H]1[C@H](c1ccccn1)N2 the IC50 [6] was > 66 µM (inactive), the IC50 (Troponin, cardiac muscle) was > 71.5 µM (inactive) and the EC50 [7] was 31.1 µM (inconclusive). The IC50 [8] was 53.3 µM (inactive) and the IC50 (Estrogen receptor) was 9.53 µM (active).
In the case of Oc1nc(Nc2ccc(F)cc2)cc2ccccc12, the AC50 (Caspase-6) is reported as 0.942 µM (active), the AC50 (Caspase-9) is reported as 3.04 µM (active) and the IC50 [9] is reported as 7.66 µM (active). For the same molecule, the AC50 (Caspase-8) was 2.48 µM (active).
For CN(C)c1cc(N/N=C\c2ccccc2)nc(N(C)C)n1, the IC50 [10] was > 50 µM (not active) and the IC50 [11] was 6.1 µM (active).
In the case of NC(COc1cncc(-c2ccc3c(c2)C(=Cc2ccc[nH]2)C(=O)N3)c1)Cc1ccccc1 (stereo not drawn), the Ki [12] is reported as 0.00501 µM (active).
